Measured values as given in US11739074B2, “Ras inhibitors” (Revolution Medicines, Inc., priority 2019, dated 2023).
Where two headings read alike, the source gives them in different places.

Experiments:
KRAS G12C = KRAS G12C (Homo sapiens, UniProt P01116+P62937, G12C); test: Ras-Raf disruption/FRET/MOA assay, KRAS G12C; format: biochemical
Procedure, shortened: (§1)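 TR-FRET read-out of the K-Ras:RAF complex: decreased ratio relative to DMSO indicates compound-driven cyclophilin A ternary complex formation. Compound (top 30 µM, 3-fold, 10 points), 25 µM cyclophilin A, 12.5 nM GMPPNP-loaded His6-K-Ras and 50 nM GST-BRAF RBD were incubated 3 h at 25 °C (pH 7.3), followed by Eu/APC antibodies for 1.5 h.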

KRAS G12S = KRAS G12S (Homo sapiens, UniProt P01116+P62937, G12S); test: Ras-Raf disruption/FRET/MOA assay, KRAS G12S; format: biochemical
Chain of KRAS G12S (P01116 1-169 isoform P01116-2 G12S limits assumed): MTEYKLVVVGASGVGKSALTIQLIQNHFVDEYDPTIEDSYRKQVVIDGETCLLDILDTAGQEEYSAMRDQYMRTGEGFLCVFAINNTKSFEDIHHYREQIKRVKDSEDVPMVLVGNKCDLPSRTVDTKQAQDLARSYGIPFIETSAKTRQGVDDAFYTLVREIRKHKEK
Chain of KRAS G12S (P62937 whole entry): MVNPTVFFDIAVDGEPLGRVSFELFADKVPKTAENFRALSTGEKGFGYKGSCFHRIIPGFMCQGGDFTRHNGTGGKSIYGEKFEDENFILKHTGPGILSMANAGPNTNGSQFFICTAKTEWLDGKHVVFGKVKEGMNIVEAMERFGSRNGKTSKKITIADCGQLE
Procedure, shortened: as §1

KRAS G12D = KRAS G12D (Homo sapiens, UniProt P01116+P62937, G12D); test: Ras-Raf disruption/FRET/MOA assay, KRAS G12D; format: biochemical
Chain of KRAS G12D (P01116 1-169 isoform P01116-2 G12D limits assumed): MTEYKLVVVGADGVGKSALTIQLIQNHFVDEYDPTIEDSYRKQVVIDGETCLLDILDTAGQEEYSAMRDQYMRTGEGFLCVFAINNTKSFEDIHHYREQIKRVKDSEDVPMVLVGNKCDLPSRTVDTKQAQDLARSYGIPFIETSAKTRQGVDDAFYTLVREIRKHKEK
Chain of KRAS G12D (P62937 whole entry): as the sequence (P62937 whole entry) above
Procedure, shortened: as §1

NRAS G12C = molecular target: T1, NRAS G12C (Homo sapiens, UniProt P01111+P62937, G12C); test: Ras-Raf disruption/FRET/MOA assay, NRAS G12C; format: biochemical
T1 construct: His6
T1 sequence (P01111 whole entry G12C): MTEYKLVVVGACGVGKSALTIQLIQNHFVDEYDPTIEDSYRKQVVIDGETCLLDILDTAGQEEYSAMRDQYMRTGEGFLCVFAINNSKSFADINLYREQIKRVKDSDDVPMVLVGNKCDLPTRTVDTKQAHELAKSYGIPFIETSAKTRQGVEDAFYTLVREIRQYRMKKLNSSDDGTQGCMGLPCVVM
T1 sequence (P62937 whole entry): as the sequence (P62937 whole entry) above
Procedure, shortened: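 Disruption of Ras:RAF binding was read as a drop in TR-FRET ratio versus DMSO controls. The buffer was 25 mM HEPES pH 7.3, 0.002% Tween20, 0.1% BSA, 100 mM NaCl and 5 mM MgCl2. Compounds were tested as a 10-point 3-fold dilution series from 30 μM. Detection used 10 nM anti-His Eu-W1024 and 50 nM anti-GST allophycocyanin.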

KRAS WT = KRAS WT (Homo sapiens, UniProt P01116+P62937); test: Ras-Raf disruption/FRET/MOA assay, KRAS WT; format: biochemical
Chain of KRAS WT (P01116 1-169 isoform P01116-2 limits assumed): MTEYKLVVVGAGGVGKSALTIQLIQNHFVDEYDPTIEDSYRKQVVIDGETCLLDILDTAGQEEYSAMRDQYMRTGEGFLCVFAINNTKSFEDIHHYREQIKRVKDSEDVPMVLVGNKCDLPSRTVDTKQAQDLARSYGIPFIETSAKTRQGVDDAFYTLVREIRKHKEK
Chain of KRAS WT (P62937 whole entry): as the sequence (P62937 whole entry) above
Procedure, shortened: as §1

KRAS G12V = KRAS G12V (Homo sapiens, UniProt P01116+P62937, G12V); test: Ras-Raf disruption/FRET/MOA assay, KRAS G12V; format: biochemical
Chain of KRAS G12V (P01116 1-169 isoform P01116-2 G12V limits assumed): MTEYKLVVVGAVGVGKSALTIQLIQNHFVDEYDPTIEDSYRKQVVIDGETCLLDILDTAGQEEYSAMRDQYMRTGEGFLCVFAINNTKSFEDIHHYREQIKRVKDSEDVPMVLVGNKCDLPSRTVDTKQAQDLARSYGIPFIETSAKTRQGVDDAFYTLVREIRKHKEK
Chain of KRAS G12V (P62937 whole entry): as the sequence (P62937 whole entry) above
Procedure, shortened: as §1

NCI-H358 (K-Ras G12C) = test: CellTiter-Glo cell viability assay, H358; format: cell-based; settings: Homo sapiens, NCI-H358, 120 h
Procedure, shortened: (§2)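 Luminescent viability readout on day 5, plates first brought to room temperature for ~30 min; compounds added straight to plated RAS-mutant cells. Values expressed as percent of mean DMSO signal, curves fitted with a four-parameter logistic model.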

KRAS G13D = KRAS G13D (Homo sapiens, UniProt P01116+P62937, G13D); test: Ras-Raf disruption/FRET/MOA assay, KRAS G13D; format: biochemical
Chain of KRAS G13D (P01116 1-169 isoform P01116-2 G13D limits assumed): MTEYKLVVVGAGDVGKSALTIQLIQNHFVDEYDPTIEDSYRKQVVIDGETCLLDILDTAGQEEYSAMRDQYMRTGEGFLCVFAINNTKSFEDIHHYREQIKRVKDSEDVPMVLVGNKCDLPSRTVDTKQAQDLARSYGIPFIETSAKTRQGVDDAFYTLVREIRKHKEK
Chain of KRAS G13D (P62937 whole entry): as the sequence (P62937 whole entry) above
Procedure, shortened: as §1

KRAS G13C = KRAS G13C (Homo sapiens, UniProt P01116+P62937, G13C); test: Ras-Raf disruption/FRET/MOA assay, KRAS G13C; format: biochemical
Chain of KRAS G13C (P01116 1-169 isoform P01116-2 G13C limits assumed): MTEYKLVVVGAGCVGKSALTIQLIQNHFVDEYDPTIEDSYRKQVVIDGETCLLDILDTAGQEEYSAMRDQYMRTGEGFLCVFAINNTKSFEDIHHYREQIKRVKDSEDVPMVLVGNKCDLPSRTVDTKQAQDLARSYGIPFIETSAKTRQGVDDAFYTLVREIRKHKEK
Chain of KRAS G13C (P62937 whole entry): as the sequence (P62937 whole entry) above
Procedure, shortened: as §1

AsPC-1 (K-Ras G12D) [1] = test: Potency assay: pERK in AsPC-1 cells; format: cell-based; settings: Homo sapiens
AsPC-1 (K-Ras G12D) [2] = test: CellTiter-Glo cell viability assay, AsPC-1; format: cell-based; settings: Homo sapiens, ASPC1, 120 h
Procedure, shortened: as §2

[3] = disruption of BRAF RBD binding, with Cyclophilin A, read-out: KRAS G12C FRET IC50
[4] = disruption of BRAF RBD binding, with Cyclophilin A, read-out: KRAS G12S FRET IC50
[5] = disruption of BRAF RBD binding, with Cyclophilin A, read-out: KRAS G12D FRET IC50
[6] = NRAS G12C, read-out: NRAS G12C FRET data IC50
[7] = disruption of BRAF RBD binding, with Cyclophilin A, read-out: KRAS WT FRET IC50
[8] = disruption of BRAF RBD binding, with Cyclophilin A, read-out: KRAS G12V FRET IC50
[9] = read-out: H358 Cell Viability IC50
[10] = disruption of BRAF RBD binding, with Cyclophilin A, read-out: KRAS G13D FRET IC50
[11] = disruption of BRAF RBD binding, with Cyclophilin A, read-out: KRAS G13C FRET IC50
[12] = ASPC1, read-out: pERK EC50 (AsPC-1 KRAS G12D)
[13] = read-out: AsPC-1 Cell Viability IC50
[14] = NCI-H358, K-Ras G12C, 5-day treatment, read-out: H358 Cell Viability IC50
[15] = ASPC1, AsPC-1 cells, K-Ras G12D, read-out: pERK EC50 (AsPC-1 KRAS G12D)
[16] = AsPC-1, K-Ras G12D, 5-day treatment, read-out: AsPC-1 Cell Viability IC50
[17] = NRAS G12C FRET data IC50, NRAS G12C
[18] = read-out: H358 Cell Viability IC50, NCI-H358, K-Ras G12C, 5-day treatment
[19] = read-out: AsPC-1 Cell Viability IC50, AsPC-1, K-Ras G12D, 5-day treatment

Chain of KRAS G12C (P01116 1-169 isoform P01116-2 G12C limits assumed): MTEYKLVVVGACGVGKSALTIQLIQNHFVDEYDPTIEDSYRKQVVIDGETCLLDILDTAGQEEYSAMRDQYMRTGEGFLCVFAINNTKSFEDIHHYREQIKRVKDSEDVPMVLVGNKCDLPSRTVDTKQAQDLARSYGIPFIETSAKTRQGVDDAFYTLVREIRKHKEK
Chain of KRAS G12C (P62937 whole entry): as the sequence (P62937 whole entry) above

Structure (SMILES)	IC50 (KRAS G12C; [3])	IC50 (KRAS G12S; [4])	IC50 (KRAS G12D; [5])	IC50 (NRAS G12C; [6])	IC50 (KRAS WT; [7])	IC50 (KRAS G12V; [8])	IC50 (NCI-H358 (K-Ras G12C); [9])	IC50 (KRAS G13D; [10])	IC50 (KRAS G13C; [11])	EC50 (AsPC-1 (K-Ras G12D) [1]; [12])	IC50 (AsPC-1 (K-Ras G12D) [2]; [13])	IC50 (NCI-H358 (K-Ras G12C); [14])	EC50 (AsPC-1 (K-Ras G12D) [1]; [15])	IC50 (AsPC-1 (K-Ras G12D) [2]; [16])	IC50 (KRAS G12C)	IC50 (KRAS G12S)	IC50 (KRAS G12D)	IC50 (NRAS G12C; [17])	IC50 (KRAS WT)	IC50 (KRAS G12V)	also measured
CCn1c(-c2cnccc2COC)c2c3cc(ccc31)-c1cc(O)cc(c1)C[C@H](NC(=O)[C@H](C(C)C)N(C)C(=O)CN(C)C(=O)[C@@H]1[C@H](C(=O)OC)N1[S@@+]([O-])C(C)(C)C)C(=O)N1CCC[C@H](N1)C(=O)OCC(C)(C)C2 (stereo partly drawn) [Compound 50]	0.01 to 0.1 µM	0.01 to 0.1 µM	0.1 to 1 µM	0.01 to 0.1 µM	0.1 to 1 µM	0.01 to 0.1 µM	0.1 to 1 µM	0.1 to 1 µM	0.01 to 0.1 µM	< 5 µM	> 10 µM	–	–	–	–	–	–	–	–	–	–
CCn1c(-c2cnccc2COC)c2c3cc(ccc31)-c1cc(O)cc(c1)C[C@H](NC(=O)[C@H](C(C)C)N(C)C(=O)CN(C)C(=O)[C@H]1[C@@H](C3CC3)N1[S@+]([O-])C(C)(C)C)C(=O)N1CCC[C@H](N1)C(=O)OCC(C)(C)C2 (stereo partly drawn) [Compound 52]	0.01 to 0.1 µM	0.01 to 0.1 µM	0.1 to 1 µM	0.01 to 0.1 µM	0.01 to 0.1 µM	0.1 to 1 µM	0.1 to 1 µM	0.1 to 1 µM	0.1 to 1 µM	< 5 µM	1 to 10 µM	–	–	–	–	–	–	–	–	–	–
CCn1c(-c2cccnc2[C@H](C)OC)c2c3cc(ccc31)-c1cc(O)cc(c1)C[C@H](NC(=O)[C@H](C1CCCC1)N(C)C(=O)[C@H]1CCN(C(=O)[C@H]3CN3)C1)C(=O)N1CCC[C@H](N1)C(=O)OCC(C)(C)C2 [Compound 58]	< 0.01 µM	0.01 to 0.1 µM	0.1 to 1 µM	< 0.01 µM	0.01 to 0.1 µM	0.01 to 0.1 µM	–	0.01 to 0.1 µM	0.01 to 0.1 µM	–	–	< 0.01 µM	< 5 µM	0.1 to 1 µM	–	–	–	–	–	–	–
CCn1c(-c2cccnc2[C@H](C)OC)c2c3cc(ccc31)-c1cc(O)cc(c1)C[C@H](NC(=O)[C@H](C(C)C)N(C)C(=O)CN(C)C(=O)[C@@H]1CN1)C(=O)N1CCC[C@H](N1)C(=O)OCC(C)(C)C2 [Compound 150]	–	–	–	–	–	–	–	–	–	< 5 µM	–	–	–	–	< 0.01 µM	0.01 to 0.1 µM	0.01 to 0.1 µM	< 0.01 µM	0.01 to 0.1 µM	0.01 to 0.1 µM	IC50 (NCI-H358 (K-Ras G12C); [18]): < 0.01 µM; IC50 (KRAS G13D): 0.01 to 0.1 µM; IC50 (KRAS G13C): 0.01 to 0.1 µM; IC50 (AsPC-1 (K-Ras G12D) [2]; [19]): 0.1 to 1 µM
CCn1c(-c2cccnc2[C@H](C)OC)c2c3cc(ccc31)-c1cc(O)cc(c1)C[C@H](NC(=O)[C@H](C(C)C)N1CC[C@@]3(CCCN(C(=O)[C@@H]4CN4)C3)C1=O)C(=O)N1CCC[C@H](N1)C(=O)OCC(C)(C)C2 [Compound 191]	0.01 to 0.1 µM	0.01 to 0.1 µM	0.1 to 1 µM	0.01 to 0.1 µM	0.01 to 0.1 µM	0.1 to 1 µM	–	0.1 to 1 µM	0.01 to 0.1 µM	–	–	0.01 to 0.1 µM	< 5 µM	1 to 10 µM	–	–	–	–	–	–	–
CCn1c(-c2cnccc2COC)c2c3cc(ccc31)-c1cc(O)cc(c1)C[C@H](NC(=O)[C@H](C(C)C)N(C)C(=O)CN(C)C(=O)[C@H]1CN1)C(=O)N1CCC[C@H](N1)C(=O)OCC(C)(C)C2 [Example 7, (2R)—N-(2-(((2S)-1-(((6^3S,4S)-1^1-ethyl-2^5-hydroxy-1^2-(4-(methoxymethyl)pyridin-3-yl)-10,10-dimethyl-5,7-dioxo-6^1,6^2,6^3,6^4,6^5,6^6-hexahydro-1^1H-8-oxa-1(5,3)-indola-6(1,3)-pyridazina-2(1,3)-benzenacycloundecaphane-4-yl)amino)-3-methyl-1-oxobutan-2-yl)(methyl)amino)-2-oxoethyl)-N-methylaziridine-2-carboxamide]	–	–	–	–	–	–	–	–	–	< 5 µM	–	–	–	–	< 0.01 µM	0.01 to 0.1 µM	0.1 to 1 µM	< 0.01 µM	0.1 to 1 µM	0.1 to 1 µM	IC50 (NCI-H358 (K-Ras G12C); [18]): 0.01 to 0.1 µM; IC50 (KRAS G13D): 0.1 to 1 µM; IC50 (KRAS G13C): 0.01 to 0.1 µM; IC50 (AsPC-1 (K-Ras G12D) [2]; [19]): 0.1 to 1 µM
